Reference: patent publication US11524960B2, “Heterobicyclic inhibitors of MAT2A and methods of use for treating cancer” (AGIOS PHARMACEUTICALS, INC., priority 2018, dated 2022)
pIC50: −log10 of the molar value.

Assays:
MAT2A homodimer = biological target: T1, MAT2A homodimer (Homo sapiens, UniProt P31153); test: Biochemical assay: inhibition of MAT2A (phosphate release, PiColorLock Gold); conditions: MAT2A IC50 score; read-out: Enzyme Inhibition (Example 275)
T1 construct: inferred from Ni sepharose purification and imidazole elution; made in house; host or cells: Sf9 insect cells, recombinant baculovirus (Bac to Bac, pFASTBAC1)
Summary of the method: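 Phosphate formed alongside SAM was read with PiColorLock Gold and quantified against a potassium phosphate standard curve. Reactions ran 60 min at 25 °C after adding a substrate mix of 500 μM ATP and 400 μM L-methionine (mix concentrations). Compound had first been preincubated 60 min with recombinant Sf9-derived MAT2A homodimer ([…]) in pH 8.0 Tris buffer containing MgCl2, KCl, EDTA and BSA.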

HCT116 MTAP−/− = test: Inhibition of cellular proliferation (Cell Titer Glo), HCT116 MTAP−/−; type: cell-based, human; conditions: Homo sapiens, HCT-116, 96 h, 4 days, IC50 score, read-out: 4 Day Relative Growth Inhibition (MTAP −/−; Example 277)
Summary of the method: (§1)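 Proliferation was read as ATP luminescence (Cell Titer Glo) after a 4-day, 37 °C exposure of HCT116 cells differing only in MTAP deletion status. Dosing was 10 points, 3-fold steps, added 24 h post-plating; signal minus blank, relative to 0.2% DMSO control wells, was plotted against log molar concentration.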

HCT116 MTAP+/+ = test: Inhibition of cellular proliferation (Cell Titer Glo), HCT116 MTAP+/+; type: cell-based, human; conditions: Homo sapiens, HCT-116, 96 h, 4 days, IC50 score, read-out: 4 Day Relative Growth Inhibition (MTAP +/+; Example 277)
Summary of the method: as §1

[1] = tested on: SAM in HCT116 human colon carcinoma cell line engineered to delete the MTAP gene (MTAP −/−); test: Cellular assay of target engagement (SAM) by LC-MS/MS; type: cell-based; conditions: Homo sapiens, HCT-116, 72 h, IC50 score, read-out: Cell 72 h SAM Inhibition (MTAP −/−; Example 276)
Summary of the method: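 Intracellular SAM, the MAT2A product, was measured by quantitative LC-MS/MS against a d3-SAM standard in methanol/acetic acid extracts. Extracts came from HCT116 MTAP −/− cells exposed for 72 h at 37 °C to a ten-point, threefold dilution series of compound, added one day after seeding.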

T1 sequence (P31153 whole entry): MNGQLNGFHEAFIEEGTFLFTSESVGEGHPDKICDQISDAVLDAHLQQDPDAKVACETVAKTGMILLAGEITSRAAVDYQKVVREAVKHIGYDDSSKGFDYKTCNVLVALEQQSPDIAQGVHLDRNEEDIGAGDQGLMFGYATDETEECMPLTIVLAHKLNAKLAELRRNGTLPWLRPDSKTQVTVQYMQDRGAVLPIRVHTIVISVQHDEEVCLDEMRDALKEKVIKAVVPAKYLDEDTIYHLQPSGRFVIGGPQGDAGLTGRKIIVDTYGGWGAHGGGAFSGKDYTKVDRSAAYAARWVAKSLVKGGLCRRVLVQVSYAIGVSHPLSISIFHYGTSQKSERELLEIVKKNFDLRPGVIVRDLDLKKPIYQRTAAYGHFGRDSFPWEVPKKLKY

Structure (SMILES) | pIC50 (MAT2A homodimer) | pIC50 (HCT116 MTAP−/−) | pIC50 (HCT116 MTAP+/+) | pIC50 [1]
Cn1cc2cc(-n3cc4ccc(NC5CC5)nc4c(-c4ccc(OC(F)F)cc4)c3=O)ccc2n1 [Example 242, 2-(cyclopropylamino)-8-(4-(difluoromethoxy)phenyl)-6-(2-methyl-2H-indazol-5-yl)-1,6-naphthyridin-7(6H)-one] | > 7.00 | > 7.00 | < 5.00 | > 7.00
CCOc1ccc2cn(-c3ccc4ncccc4c3)c(=O)c(-c3ccc(Cl)cc3)c2n1 [Example 243, 8-(4-chlorophenyl)-2-ethoxy-6-(quinolin-6-yl)-1,6-naphthyridin-7(6H)-one] | > 7.00 | > 7.00 | < 5.00 | > 7.00
CCOc1ccc2cn(-c3ccc4nccnc4c3)c(=O)c(-c3ccc(Cl)cc3)c2n1 [Example 244, 8-(4-chlorophenyl)-2-ethoxy-6-(quinoxalin-6-yl)-1,6-naphthyridin-7(6H)-one] | > 7.00 | > 7.00 | 5.00 to 7.00 | > 7.00
CCOc1ccc2cn(-c3ccc4nnccc4c3)c(=O)c(-c3ccc(Cl)cc3)c2n1 [Example 245, 8-(4-chlorophenyl)-6-(cinnolin-6-yl)-2-ethoxy-1,6-naphthyridin-7(6H)-one] | > 7.00 | 5.00 to 7.00 | < 5.00 | > 7.00
CCOc1ccc2cn(-c3ccc4ncncc4c3)c(=O)c(-c3ccc(Cl)cc3)c2n1 [Example 246, 8-(4-chlorophenyl)-2-ethoxy-6-(quinazolin-6-yl)-1,6-naphthyridin-7(6H)-one] | > 7.00 | 5.00 to 7.00 | 5.00 to 7.00 | 6.00 to 7.00
CCOc1ccc2cn(-c3ccc4nn(C)cc4c3)c(=O)c(-c3ccc(Cl)cc3)c2n1 [Example 247, 8-(4-chlorophenyl)-2-ethoxy-6-(2-methyl-2H-indazol-5-yl)-1,6-naphthyridin-7(6H)-one] | > 7.00 | > 7.00 | 5.00 to 7.00 | > 7.00
CCOc1ccc2cn(-c3ccc4ncn(C)c4c3)c(=O)c(-c3ccc(Cl)cc3)c2n1 [Example 248, 8-(4-chlorophenyl)-2-ethoxy-6-(1-methyl-1H-benzo[d]imidazol-6-yl)-1,6-naphthyridin-7(6H)-one] | > 7.00 | > 7.00 | 5.00 to 7.00 | > 7.00
CCOc1ccc2cn(-c3ccc(=O)n(CCS(C)(=O)=O)c3)c(=O)c(-c3ccc(OC(F)F)cc3)c2n1 [Example 249, 8-(4-(difluoromethoxy)phenyl)-2-ethoxy-6-(1-(2-(methylsulfonyl)ethyl)-6-oxo-1,6-dihydropyridin-3-yl)-1,6-naphthyridin-7(6H)-one] | > 7.00 | 5.00 to 7.00 | 5.00 to 7.00 | > 7.00
CCOc1ccc2cn(-c3ccc(OC)cc3)c(=O)c(-c3ccc(OC(F)F)cc3)c2n1 [Example 250, 8-(4-(difluoromethoxy)phenyl)-2-ethoxy-6-(4-methoxyphenyl)-1,6-naphthyridin-7(6H)-one] | > 7.00 | > 7.00 | 5.00 to 7.00 | > 7.00
CCOc1ccc2cn(-c3ccc4nn(C)cc4c3)c(=O)c(-c3ccc(OC(F)F)cc3)c2n1 [Example 251, 8-(4-(difluoromethoxy)phenyl)-2-ethoxy-6-(2-methyl-2H-indazol-5-yl)-1,6-naphthyridin-7(6H)-one] | > 7.00 | > 7.00 | 5.00 to 7.00 | > 7.00
CCOc1ccc2cn(-c3ccc4nnn(C)c4c3)c(=O)c(-c3ccc(OC(F)F)cc3)c2n1 [Example 252, 8-(4-(difluoromethoxy)phenyl)-2-ethoxy-6-(1-methyl-1H-benzo[d][1,2,3]triazol-6-yl)-1,6-naphthyridin-7(6H)-one] | > 7.00 | 5.00 to 7.00 | 5.00 to 7.00 | > 7.00
CCOc1ccc2cn(-c3ccc4ncn(C)c4c3)c(=O)c(-c3ccc(OC(F)F)cc3)c2n1 [Example 253, 8-(4-(difluoromethoxy)phenyl)-2-ethoxy-6-(1-methyl-1H-benzo[d]imidazol-6-yl)-1,6-naphthyridin-7(6H)-one] | > 7.00 | > 7.00 | 5.00 to 7.00 | > 7.00
Cn1cc2cc(-n3cc4ccc(OCC(F)(F)F)nc4c(-c4ccc(Cl)cc4)c3=O)ccc2n1 [Example 254, 8-(4-chlorophenyl)-6-(2-methyl-2H-indazol-5-yl)-2-(2,2,2-trifluoroethoxy)-1,6-naphthyridin-7(6H)-one] | > 7.00 | > 7.00 | < 5.00 | > 7.00
Cn1cnc2ccc(-n3cc4ccc(OCC(F)(F)F)nc4c(-c4ccc(Cl)cc4)c3=O)cc21 [Example 255, 8-(4-chlorophenyl)-6-(1-methyl-1H-benzo[d]imidazol-6-yl)-2-(2,2,2-trifluoroethoxy)-1,6-naphthyridin-7(6H)-one] | > 7.00 | > 7.00 | < 5.00 | > 7.00
Cn1cc2cc(-n3cc4ccc(OCC(F)(F)F)nc4c(-c4ccc(OC(F)F)cc4)c3=O)ccc2n1 [Example 256, 8-(4-(difluoromethoxy)phenyl)-6-(2-methyl-2H-indazol-5-yl)-2-(2,2,2-trifluoroethoxy)-1,6-naphthyridin-7(6H)-one] | > 7.00 | 5.00 to 7.00 | 5.00 to 7.00 | > 7.00
Cn1cnc2ccc(-n3cc4ccc(OCC(F)(F)F)nc4c(-c4ccc(OC(F)F)cc4)c3=O)cc21 [Example 257, 8-(4-(difluoromethoxy)phenyl)-6-(1-methyl-1H-benzo[d]imidazol-6-yl)-2-(2,2,2-trifluoroethoxy)-1,6-naphthyridin-7(6H)-one] | > 7.00 | > 7.00 | 5.00 to 7.00 | > 7.00
COc1ccc(-n2cc3ccc(OCC(F)(F)F)nc3c(-c3ccc(OC(F)F)cc3)c2=O)cc1 [Example 258, 8-(4-(difluoromethoxy)phenyl)-6-(4-methoxyphenyl)-2-(2,2,2-trifluoroethoxy)-1,6-naphthyridin-7(6H)-one] | > 7.00 | 5.00 to 7.00 | 5.00 to 7.00 | > 7.00
CCSc1ccc2cn(-c3ccc4nn(C)cc4c3)c(=O)c(-c3ccc(Cl)cc3)c2n1 [Example 259, 8-(4-chlorophenyl)-2-(ethylthio)-6-(2-methyl-2H-indazol-5-yl)-1,6-naphthyridin-7(6H)-one] | > 7.00 | > 7.00 | < 5.00 | > 7.00
CCCc1ccc2cn(-c3ccc4ncn(C)c4c3)c(=O)c(-c3ccc(OC(F)F)cc3)c2n1 [Example 260, 8-(4-(difluoromethoxy)phenyl)-6-(1-methyl-1H-benzo[d]imidazol-6-yl)-2-propyl-1,6-naphthyridin-7(6H)-one] | > 7.00 | > 7.00 | < 5.00 | > 7.00
Cn1cc2cc(-n3cc4cnc(OCC(F)(F)F)nc4c(-c4ccc(Cl)cc4)c3=O)ccc2n1 [Example 262, 8-(4-chlorophenyl)-6-(2-methyl-2H-indazol-5-yl)-2-(2,2,2-trifluoroethoxy)pyrido[4,3-d]pyrimidin-7(6H)-one] | > 7.00 | 5.00 to 7.00 | < 5.00 | > 7.00
O=c1c(-c2ccc(OC(F)F)cc2)c2nc(OCC(F)(F)F)ncc2cn1-c1ccc2ncccc2c1 [Example 264, 8-(4-(difluoromethoxy)phenyl)-6-(quinolin-6-yl)-2-(2,2,2-trifluoroethoxy)pyrido[4,3-d]pyrimidin-7(6H)-one] | > 7.00 | 5.00 to 7.00 | 5.00 to 7.00 | > 7.00
Cn1cc2cc(-n3cc4cnc(OCC(F)(F)F)nc4c(-c4ccc(OC(F)F)cc4)c3=O)ccc2n1 [Example 265, 8-(4-(difluoromethoxy)phenyl)-6-(2-methyl-2H-indazol-5-yl)-2-(2,2,2-trifluoroethoxy)pyrido[4,3-d]pyrimidin-7(6H)-one] | > 7.00 | > 7.00 | < 5.00 | > 7.00
O=c1c(-c2ccc(-c3nc[nH]n3)cc2)c2nc(OCC(F)(F)F)ncc2cn1-c1ccc2ncccc2c1 [Example 268, 8-(4-(H-1,2,4-triazol-3-yl)phenyl)-6-(quinolin-6-yl)-2-(2,2,2-trifluoroethoxy)pyrido[4,3-d]pyrimidin-7(6H)-one] | > 7.00 | 5.00 to 7.00 | < 5.00 | 6.00 to 7.00
CCOc1ncc2cn(-c3ccc4ncn(C)c4c3)c(=O)c(-c3ccc(Cl)cc3)c2n1 [Example 269, 8-(4-chlorophenyl)-2-ethoxy-6-(1-methyl-1H-benzo[d]imidazol-6-yl)pyrido[4,3-d]pyrimidin-7(6H)-one] | > 7.00 | 5.00 to 7.00 | < 5.00 | > 7.00
